Earlier results in paper PMC9095539 (Clinical Pharmacokinetics, 2022).

Tests used:
[1] = tested on: CYP2C19
[2] = BCS; no reference given
[3] = tested on: CYP3A4
[4] = tested on: CYP2B6
[5] = tested on: CYP2C9

- Eliminated unchanged in urine: 1.0–4.4%
- Time to steady-state plasma concentrations (once-daily dosing): ≤ 4 days
- Time to reach maximum levels (oral, healthy individuals): ≤ 1.5 h
- Contribution to hepatic metabolism [1]: 53%
- Permeability [2]: high
- Contribution to hepatic metabolism [3]: 11%
- Contribution to hepatic metabolism [4]: 7%
- Contribution to hepatic metabolism [5]: 30%
SMILES: CCCS(=O)(=O)N[C@H]1C[C@@H](N(C)c2ncnc3[nH]ccc23)C1 [abrocitinib, N-{cis-3-[Methyl(7H-pyrrolo[2,3-d]pyrimidin-4-yl)amino]cyclobutyl}propane-1-sulfo namide]
